Drawing on PubChem BioAssay AID1959 (Broad Institute, 2009), this text covers EC50 for 85 molecules.

Calls of active or inactive are those of the source.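 How the source made its calls: active means growth-inhibition EC50 no more than tenfold above the top tested dose; inconclusive means flat fit between 30% and 70% inhibition, or unreliable fit; inactive means EC50 more than tenfold above the top tested dose.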 Where only a bound is given, the exact number is not on record here.

This assay concerns E. coli NEB5alpha growth, BacTiter-Glo luminescence, 4 h. Description: Escherichia coli growth inhibition, dose response, counter-screen for MEX-5/POS-1 RNA-binding inhibitor project, luminescence, NEB5alpha (AID 1959).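 Further: pUC19-transformed ampicillin-resistant cells grown in LB with ampicillin.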 In general terms: Counterscreens check selectivity or assay interference.
As a reminder, the EC50 is the midpoint of the concentration-response curve. `CC1(C)CC(=O)C2=C(C1)OC(N)=C(C#N)C21C(=O)N(CN2CCOCC2)c2ccccc21` (stereo not given): the EC50 was > 11 µM (inactive).

Take `O=C(/C=C/c1ccco1)NC(=S)NNC(=O)c1ccco1`: the EC50 was > 11 µM (inactive).

In the case of `Cc1ccc2oc(=O)c(/C=C(\O)c3cccs3)nc2c1`, the EC50 is > 11 µM (inactive).

Regarding `O=C(N/N=C/c1cccnc1)c1cc(O)c(O)c(O)c1`, the EC50 is > 11 µM (inactive).

`NS(=O)(=O)c1ccc(NC(=S)NNC(=O)CCC(=O)Nc2ccccc2Cl)cc1`: the EC50 is > 11 µM (inactive).

`CCCCn1c(=O)[nH]c(=O)c2c1nc(-c1ccc(-c3ccccc3Br)o1)n2CCOC`: the EC50 was > 11 µM (inactive).

Regarding `Oc1ccc(NC(=S)N=Nc2c(O)[nH]c3ccccc23)cc1`, the EC50 is > 11 µM (inactive).

For the molecule `COC/C=C/C1=CC2=CC(=O)C(C)(OC(=O)CCC(=O)OC)C(=O)C2=CO1` (stereo not given), the EC50 is > 11 µM (inactive).

With `O=C(NNC(=O)c1ccc2ccccc2c1O)c1ccccc1Cl`, the EC50 is > 11 µM (inactive).

Turning to `CCN(CC)CCN1C(=O)C(O)=C(C(=O)c2cc3cccc(OC)c3o2)C1c1ccc(F)cc1` (stereo not given), the EC50 was > 11 µM (inactive).

As for `CCO/C(C)=N/n1c2nc3ccccc3nc2c2c(=O)n(C3CCCC3)c(C)nc21`, the EC50 is > 11 µM (inactive).

Regarding `CC1=NOC(=O)/C1=C\c1ccc2c(c1)OCO2`, the EC50 was > 11 µM (inactive).

`CCOc1ccc(N/C(=C(/C(Cl)=C(Cl)Cl)[N+](=O)[O-])n2cncn2)cc1`: the EC50 is > 11 µM (inactive).

In the case of `CCC(=S)/C=C1\Sc2ccc3ccccc3c2N1CCCS(=O)(=O)O`, the EC50 is > 11 µM (inactive).

As for `Cc1ccc(/C(O)=C/c2nc3cc(C)ccc3oc2=O)cc1`, the EC50 was > 11 µM (inactive).

Take `CCOC(=O)c1cc(-c2ccccc2)sc1NC(=S)Nc1cc(C)ccn1`: the EC50 is > 11 µM (inactive).

As for `CCn1c2ccccc2c(=O)c2ccccc21`, the EC50 is > 11 µM (inactive).

With `Cn1c(O)c(C=NCCCCCCCCCCC(=O)O)c(=O)n(C)c1=O`, the EC50 is > 11 µM (inactive).

As for `ON=C1/C(=N\O)CC2(C/C1=N/O)OCCO2`, the EC50 is > 11 µM (inactive).

For the molecule `COc1cc(OC)c(C2C(C#N)=C(N)OC3=C2C(=O)CC(C)C3)cc1OC` (stereo not given), the EC50 was > 11 µM (inactive).

Take `CN1C(=O)/C(=C\c2ccc(N(C)C)cc2)OC1=S`: the EC50 is > 11 µM (inactive).

As for `CC(=O)C1=C(c2cccc([N+](=O)[O-])c2)N(C(C)=O)n2c(C)nnc2S1`, the EC50 was > 11 µM (inactive).

As for `O=C1/C(=C/c2ccc(O)c(O)c2)SC(=S)N1Nc1ccccc1`, the EC50 is > 11 µM (inactive).

In the case of `Cc1ccc(/C=C2\Oc3c(ccc(O)c3CN3CCN(CCO)CC3)C2=O)cc1`, the EC50 is > 11 µM (inactive).

On to `CS(=O)(=O)Oc1ccc2c(c1)O/C(=C\C=C\c1ccccc1)C2=O`, for which the EC50 is > 11 µM (inactive).

For `O=C(NNc1ccccn1)C(=O)NNS(=O)(=O)c1ccc(F)cc1`, the EC50 is > 11 µM (inactive).

Consider `CN(C)CCN(C)Cc1c2ccccc2c(CN(C)CCN(C)C)c2ccccc12`, for which the EC50 is > 11 µM (inactive).

Turning to `Cc1nc2ccccc2c2oc(C(=O)Nc3ccc4c(c3)OCCO4)cc12`, the EC50 is > 11 µM (inactive).

Consider `CCOCCCNc1nc2nc3ccc(C)cn3c(=O)c2cc1C(=O)NCC1CCCO1` (stereo not given), for which the EC50 is > 11 µM (inactive).

With `COc1cc2[nH]c(C(=O)NN)c(N)c2cc1OC`, the EC50 is > 11 µM (inactive).

For the molecule `O=c1oc2ccc3ccccc3c2cc1-c1nc2ccccc2o1`, the EC50 is > 11 µM (inactive).

`O=C1c2cccc3c(N4CCCCC4)ccc(c23)C(=O)N1CCO`: the EC50 is > 11 µM (inactive).

For `CC1(C)CC(=O)C2=C(C1)OC(N)=C(C#N)C2c1ccccc1` (stereo not given), the EC50 was > 11 µM (inactive).

For `Cc1cccn2c(=O)c3cc(C#N)c(=NC(=O)c4cccs4)n(CCCOC(C)C)c3nc12`, the EC50 was > 11 µM (inactive).

Consider `Cc1cc2oc(=O)c(CC(=O)NCCCO)c(C)c2c2occ(C(C)(C)C)c12`, for which the EC50 was > 11 µM (inactive).

Take `COc1ccc(/C=N/N=C2/CC(C)(C)Cc3n[nH]c(=O)cc32)cc1`: the EC50 is > 11 µM (inactive).

As for `Cc1cc(C=C2C(=O)c3ccccc3C2=O)c(C)n1-c1ccc(C(=O)O)cc1`, the EC50 is > 11 µM (inactive).

Turning to `Cc1cc(/C=N/n2cnnc2)c(C)n1-c1ccc(C(=O)O)cc1`, the EC50 was > 11 µM (inactive).

For the molecule `COc1ccc(/C=C2\SC(=S)N(CCC(=O)NC3CCCC3)C2=O)cc1OC`, the EC50 is > 11 µM (inactive).

As to `S=C1NC2(CCS1)Oc1ccccc1C1CC(c3ccccc3)=NN12` (stereo not given), the EC50 was > 11 µM (inactive).

Take `O=C1C(Cl)=C(Nc2ccccc2O)C(=O)N1c1ccccc1`: the EC50 was > 11 µM (inactive).

For `O=c1[nH]c(=O)n(-c2cccc(F)c2)c(O)c1/C=C1\C=Nc2ccccc21`, the EC50 was > 11 µM (inactive).

In the case of `Oc1c(Cl)cc(Cl)c(Cl)c1Cc1c(O)c(Cl)cc(Cl)c1Cl`, the EC50 was > 11 µM (inactive).

`CC1(OC(=O)CCc2ccccc2)C(=O)C=C2C=C(c3ccsc3)OC=C2C1=O` (stereo not given): the EC50 is > 11 µM (inactive).

Regarding `O=C(Nc1nccs1)c1ccc(-c2ccc([N+](=O)[O-])cc2)o1`, the EC50 is > 11 µM (inactive).

Take `CSc1sccc1/C=C(/C#N)C(=O)c1ccco1`: the EC50 is > 11 µM (inactive).

In the case of `N#CC1=C(N)C(C#N)(C#N)C(c2cccnc2)C2CCCC=C12` (stereo not given), the EC50 was > 11 µM (inactive).

As for `CCc1cc(C(=O)Nc2ccc(OC)nc2)sc1C`, the EC50 is > 11 µM (inactive).

Take `CC(=O)n1c(C=Nc2ccccc2)c(O)c2ccccc21`: the EC50 was > 11 µM (inactive).

Regarding `COc1cccc(/C=C2\SC(=S)N(CCCC(=O)NC3=NCCS3)C2=O)c1`, the EC50 was > 11 µM (inactive).

With `O=C(/C=C(\O)c1ccccc1)C(=O)NNC(=O)c1ccccc1[N+](=O)[O-]`, the EC50 is > 11 µM (inactive).

Take `O=c1oc2ccc(Cl)cc2nc1/C=C(\O)c1cccs1`: the EC50 was > 11 µM (inactive).

Regarding `CCOC(=O)C1=C(C)N=c2s/c(=C/c3ccc(OCC(=O)O)cc3)c(=O)n2C1c1ccc(OC)cc1OC` (stereo not given), the EC50 was > 11 µM (inactive).

As for `O=C(N/N=C/c1ccc(-c2ccc([N+](=O)[O-])cc2)o1)c1cccnc1`, the EC50 is > 11 µM (inactive).

For the molecule `COc1ccc(C(=O)/C=C/Nc2ccc([N+](=O)[O-])cc2C)cc1OC`, the EC50 is > 11 µM (inactive).

Regarding `COc1ccc(N2C(=O)/C(=C/c3ccc(C)o3)C(=O)NC2=S)c(OC)c1`, the EC50 was > 11 µM (inactive).

As to `O=C(CCSc1nc2ccccc2s1)N/N=C/c1c(O)ccc2ccccc12`, the EC50 was > 11 µM (inactive).

`O=c1[nH]nc(CNc2ccc(O)cc2)c2ccccc12`: the EC50 was > 11 µM (inactive).

Regarding `Cc1cc(C(=O)O)ccc1-c1ccc(/C=C2\NC(=O)N(Cc3ccc(F)cc3)C2=O)o1`, the EC50 is > 11 µM (inactive).

On to `Cc1cccc(N2C(=O)/C(=C/c3ccc(CN(CCC#N)S(C)(=O)=O)o3)C(=O)NC2=S)c1`, for which the EC50 is > 11 µM (inactive).

As to `COc1ccc2c(c1)c1nc3ccccc3nc1n2CCn1c(=O)oc2ccccc21`, the EC50 was > 11 µM (inactive).

Take `COC(=O)[C@@H]1[C@H]2C[C@H]3c4[nH]c5ccccc5c4CCN3C[C@@H]2CC[C@@H]1O`: the EC50 was > 11 µM (inactive).

As for `O=C(NN1C(=O)c2ccccc2NC1c1ccccn1)c1ccc([N+](=O)[O-])cc1` (stereo not given), the EC50 was > 11 µM (inactive).

As to `O=C(OCCc1ccccc1)c1cc(O)c(O)c(O)c1`, the EC50 was > 11 µM (inactive).

As to `CCOc1ccc(C2OC34CCCCC3C(C#N)(C#N)C2(C#N)C(=N)O4)cc1OC` (stereo not given), the EC50 was > 11 µM (inactive).

As for `COc1ccc(-n2cc(CNCc3cnc4ccccn34)c(-c3cccc(F)c3)n2)cc1`, the EC50 was > 11 µM (inactive).

With `COc1ccc(-n2c(C)cc(/C=C3\SC(=S)N(Cc4ccco4)C3=O)c2C)cc1`, the EC50 is > 11 µM (inactive).

For the molecule `COC(=O)c1ccccc1-n1cccc1C(=O)NP(=O)(N1CCOCC1)N1CCOCC1`, the EC50 was > 11 µM (inactive).

On to `CC(C)Cc1nnc(NC(=O)CCC(=O)N2CC(C)CC(C)C2)s1` (stereo not given), for which the EC50 was > 11 µM (inactive).

In the case of `Cc1n[nH]c(C)c1Sc1ccccc1N=Cc1cc(Cl)cc([N+](=O)[O-])c1O`, the EC50 was > 11 µM (inactive).

In the case of `NS(=O)(=O)c1ccc(N=Nc2c[nH]c(=O)c(O)c2)cc1`, the EC50 is > 11 µM (inactive).

For the molecule `CC1(OC(=O)c2cccs2)C(=O)C=C2C=C3CCCN3C=C2C1=O` (stereo not given), the EC50 is > 11 µM (inactive).

As for `O=C(CC1Nc2ccccc2NC1=O)c1ccccc1` (stereo not given), the EC50 was > 11 µM (inactive).

As for `O=C1Nc2cc(Cl)cnc2N2CCCC12` (stereo not given), the EC50 was > 11 µM (inactive).

Turning to `CC1OC(Oc2c(-c3cc(O)c(O)c(O)c3)oc3cc(O)cc(O)c3c2=O)C(O)C(O)C1O` (stereo not given), the EC50 is > 11 µM (inactive).

Regarding `O=C(O)c1ccccc1-n1cccc1C(=O)O`, the EC50 was > 11 µM (inactive).

As for `CC(=O)Nc1ccc(/C=C/C(=O)c2ccc3c(c2)OCCO3)cc1`, the EC50 is > 11 µM (inactive).

Turning to `Cc1cccc(NC2=Nc3ccccc3N3C2=Nc2c(c(C)nn2-c2ccccc2)C3c2ccc(O)c(O)c2)c1` (stereo not given), the EC50 was > 11 µM (inactive).

Consider `CC1(OC(=O)c2ccc(Cl)nc2)C(=O)C=C2C=C(C3CC3)OC=C2C1=O` (stereo not given), for which the EC50 was > 11 µM (inactive).

For `Cc1ccc(Oc2nc(-c3ccccn3)nc3ccccc23)cc1`, the EC50 was > 11 µM (inactive).

For `COc1ccccc1NC(=S)NNC(=O)c1cc(C)n(C)n1`, the EC50 was > 11 µM (inactive).

`COc1cccc(C2C(C#N)=C(N)OC3=C2C(=O)CC(c2ccco2)C3)c1OCc1ccc(F)cc1` (stereo not given): the EC50 is > 11 µM (inactive).

`CN(C)S(=O)(=O)c1cccc(NC(=S)N/N=C/c2ccc(O)c(O)c2O)c1`: the EC50 was > 11 µM (inactive).

With `N#CC1=C(N)C(C#N)(C#N)C(c2cccnc2)C2COCC=C12` (stereo not given), the EC50 is > 11 µM (inactive).

`COc1cc([N+](=O)[O-])cc(/C=N/NC(=O)CC#N)c1O`: the EC50 was > 11 µM (inactive).
